Measurements from patent US20070244190A1, “Neobritannilactone B and acetyl neobritannilactone B” (priority 2006, published 2007).

Experiments:
[1] = test system: human AGS gastric carcinoma cell lines; assay: Cell survival assay (Example 3), trypan blue exclusion; type: cell-based; details: 24 h treatment, Example 3, FIG. 2, read-out: IC50, cell viability
Protocol: Cell Survival Assay. The human AGS gastric carcinoma cell lines (CCRC 60102) were maintained as described in Section 8.2 above. For assays, cells (5×10^4) were plated in 35-mm Petri dishes. The next day, the medium was changed and NAB and ANAB were added. Control cells were treated with DMSO to a final concentration of 0.05% (v/v). At the end of incubation, cells were harvested for cell count using a hemocytometer.
To test the effects of NAB and ANAB on cell viability, human gastric carcinoma cells were treated with different concentrations of NAB and ANAB. After 24 h treatment, the number of live cells was determined by trypan blue exclusion assay. FIG. 2. Both compounds were potent inhibitors of cell viability.

AGS cells [2] = assay: Sub-G1 flow cytometry (Example 3); type: cell-based, human; details: 24 h, FIG. 3
Protocol: Flow Cytometry. AGS cells (2×10^5) were cultured in 60-mm Petri dishes and incubated for 24 h. The cells were then harvested, washed with PBS, resuspended in 200 μL of PBS, and fixed in 800 μL of iced 100% ethanol at −20° C. After being left to stand overnight, the cell pellets were collected by centrifugation, resuspended in 1 mL of hypotonic buffer (0.5% Triton X-100 in PBS and 0.5 μg/mL RNase), and incubated at 37° C. for 30 min. Next, 1 mL of propidium iodide solution (50 μg/mL) was added, and the mixture was allowed to stand on ice for 30 min. Fluorescence emitted from the propidium iodide-DNA complex was quantitated after excitation of the fluorescent dye by FACScan cytometry (Becton Dickinson, San Jose, Calif.).
The cytotoxic effects of NAB and ANAB in AGS cells were analyzed to assess their consistency with the specific changes that characterize apoptosis, such as DNA fragmentation. To investigate the induction of a sub-G1 cell population, the DNA content of AGS cells treated with various concentrations of NAB and ANAB was analyzed by flow cytometry. Cells were treated with NAB and ANAB, and stained with propidum iodide.

[3] = test system: poly-(ADP-ribose) polymerase (PARP) in AGS cells; assay: Western blot of PARP cleavage; type: cell-based, human; details: for PARP cleavage (85-kDa fragment): AGS cells treated for 24, FIG. 6A
Protocol: Western Blotting. The nuclear and cytosolic proteins were isolated from AGS cells after treatment with 60 μM for 0, 3, 6, 9, 12, 18, and 24 h. The total proteins were extracted via the addition of 200 μL of gold lysis buffer (50 mM Tris-HCl, pH 7.4; 1 mM NaF; 150 mM NaCl; 1 mM EGTA; 1 mM phenylmethanesulfonyl fluoride; 1% NP-40; and 10 μg/mL leupeptin) to the cell pellets on ice for 30 min, followed by centrifugation at 10,000 g for 30 min at 4° C. The cytosolic fraction (supernatant) proteins were measured by Bio-Rad protein assay (Bio-Rad Laboratories, Munich, Germany). The samples (50 μg of protein) were mixed with 5× sample buffer containing 0.3 M Tris-HCl (pH 6.8), 25% 2-mercaptoethanol, 12% sodium dodecyl sulfate (SDS), 25 mM EDTA, 20% glycerol, and 0.1% bromophenol blue. The mixtures were boiled at 100° C. for 5 min and were subjected to 12% SDS-polyacrylamide minigels at a constant current of 20 mA. Subsequently, electrophoresis was ordinarily carried out on SDS-polyacrylamide gels. For electrophoresis, proteins on the gel were electrotransferred onto an immobile membrane (PVDF; Millipore Corp., Bedford, Mass.) with transfer buffer composed of 25 mM Tris-HCl (pH 8.9), 192 mM glycine, and 20% methanol. The membranes were blocked with blocking solution containing 20 mM Tris-HCl and then immunoblotted with primary antibodies including, anti-Bcl-XL, anti-β-actin (Transduction Laboratory, Lexington, Ky.), anti-PARP (UBI, Inc., Lake Placid, N.Y.), at room temperature for 1 h. Detection was achieved by measuring the chemiluminescence of blotting agent (ECL, Amersham Corp., Arlington Heights, Ill.), after exposure of the filters to KODAK X-OMAT films.
Activation of caspase-3 leads to the cleavage of a number of proteins, one of which is poly-(ADP-ribose) polymerase (PARP). A hallmark of apoptosis is that PARP (116 kDa) is cleaved to produce an 85-kDa fragment. PARP cleavage was examined in cells treated with NAB or ANAB for 24.

AGS cells [4] = assay: DNA fragmentation by agarose gel electrophoresis; type: cell-based, human; details: 15 μM, 24 h, FIG. 4
Protocol: DNA Extraction and Electrophoresis Analysis. The AGS human cancer cells were harvested, washed with phosphate-buffered saline (PBS), and then lysed with digestion buffer containing 0.5% sarkosyl, 0.5 mg/mL proteinase K, 50 mM tris(hydroxy methyl)aminomethan (pH 8.0), and 10 mM EDTA at 56° C. overnight and treated with RNase A (0.5 μg/mL) for 3 h at 56° C. The DNA was extracted by phenol/chloroform/isoamyl (25:24:1) before loading and was analyzed by 2% agarose gel electrophoresis. The agarose gels were run at 50 V for 120 min in Tris-borate/EDTA electrophoresis buffer (TBE). Approximately 20 μg of DNA was loaded in each well and visualized under UV light, and photographed.
(§1) Physiological cell death is characterized by apoptotic morphology, including chromatin condensation, membrane blebbing, internucleosome degradation of DNA, and apoptotic body formation. Nucleosomal DNA ladders visible on agarose gel after staining with ethidium bromide are typical of apoptotic cell samples. To investigate whether the cytotoxic effects of NAB and ANAB observed in AGS cells were due to the presence of apoptotic cell death, cells were treated with […] (0-25 μM) for 24 h and DNA fragmentation analyses were performed. […] FIG. 5.

AGS cells [5] = assay: Morphological changes by light microscopy; type: cell-based, human; details: 10 μM, within 24 h, FIG. 5
Description: FIG. 5 provides light microscopic images showing the morphological changes of AGS cells, including the induction of apoptotic bodies from AGS cells, induced by NAB and ANAB.
as §1

| Structure (SMILES) | IC50 [1] [µM] | percentage of apoptotic AGS cells (AGS cells [2]; 5 μM) [%] | percentage of apoptotic AGS cells (AGS cells [2]; 10 μM) [%] | percentage of apoptotic AGS cells (AGS cells [2]; 15 μM) [%] | percentage of apoptotic AGS cells (AGS cells [2]; 25 μM) [%] | PARP cleavage (85-kDa fragment) [3] | DNA fragmentation (DNA ladders) (AGS cells [4]) | morphological changes (AGS cells [5]) | PARP cleavage over time ([3]; 15 μM, time course, FIG. 6B) |
| --- | --- | --- | --- | --- | --- | --- | --- | --- | --- |
| C=C1C(=O)OC2C=C(C)CCC=C(C)CC(O)C12 (stereo not drawn) [Compound 3, 4-hydroxy-3α,4,5,8,9,11α-hexahydro-6,10-dimethyl-3-methylene-cyclodeca[b]furan-2(3H)-one] | 7.6 | 14 | 27 | 63 | 86 | PARP proteolytic fragment was found | – | – | – |
| C=C1C(=O)O[C@H]2/C=C(\C)CC/C=C(\C)C[C@H](OC(C)=O)[C@@H]12 [Compound 4, acetyl neobritannilactone B] | 4.2 | 24 | 64 | 81 | 92 | PARP proteolytic fragment was found | significant DNA ladders were observed | significant morphological changes and chromosomal condensation | time-dependent proteolytic cleavage of PARP |
